Results as given in ChEMBL document CHEMBL1165948, “The scope of thallium nitrate oxidative cyclization of chalcones; synthesis and evaluation of isoflavone and aurone analogs for their inhibitory activity against interleukin-5” (Bioorg Med Chem, 2010).

Target: T1, Interleukin-5 (Mus musculus) (UniProt P04401)
T1 sequence (whole entry): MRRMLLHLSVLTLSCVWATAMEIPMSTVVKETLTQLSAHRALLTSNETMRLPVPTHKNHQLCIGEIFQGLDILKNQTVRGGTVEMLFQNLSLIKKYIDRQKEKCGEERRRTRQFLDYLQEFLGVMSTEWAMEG
Assay: Inhibition of IL5-mediated proliferation of mouse Y16 cells at 50 uM by WST1 assay
Assay type: cell-based

| SMILES | inhibition [%] |
| --- | --- |
| CCc1ccc(/C=C2\Oc3cccc(OCC4CCCCC4)c3C2=O)cc1 | 3.8 |
| COc1cc(-c2coc3cccc(OCC4CCCCC4)c3c2=O)ccc1OCc1ccccc1 | 99.8 |
| COc1cc(-c2coc3cccc(OCC4CCCCC4)c3c2=O)cc(OC)c1OC | > 100 |
| O=Cc1ccc(/C=C2\Oc3cccc(OCC4CCCCC4)c3C2=O)cc1 | 8 |
| COc1ccc(-c2coc3cccc(OCC4CCCCC4)c3c2=O)cc1OC | 30.6 |
| O=C1/C(=C/c2ccc([N+](=O)[O-])cc2)Oc2cccc(OCC3CCCCC3)c21 | 5.7 |
| O=C1/C(=C/c2ccccc2)Oc2cccc(OCC3CCCCC3)c21 | 3.1 |
| O=C1/C(=C/c2ccc(Cl)cc2)Oc2cccc(OCC3CCCCC3)c21 | 12.2 |
| COC(=O)c1ccc(/C=C2\Oc3cccc(OCC4CCCCC4)c3C2=O)cc1 | 3.5 |
| O=c1c(-c2ccc(O[C@@H]3O[C@H](CO)[C@@H](O)[C@H](O)[C@H]3O)cc2)coc2cc(O)cc(O)c12 | 92.1 |
| COc1ccc(-c2coc3cccc(OCC4CCCCC4)c3c2=O)c(OC)c1 | 15.6 |

Further lines, results first:

| inhibition [%] | SMILES |
| --- | --- |
| 10.5 | COCOc1ccc(-c2coc3cccc(OCC4CCCCC4)c3c2=O)cc1 |
| 91.7 | O=c1c(-c2ccc(O)cc2)coc2cccc(OCC3CCCCC3)c12 |
| 15.4 | COc1ccc(-c2coc3cccc(OCC4CCCCC4)c3c2=O)cc1 |
| 9.7 | CCc1ccc(-c2coc3cccc(OCC4CCCCC4)c3c2=O)cc1 |
| 15.7 | COc1cc(-c2coc3cccc(OCC4CCCCC4)c3c2=O)ccc1O |
